Reference: PubChem BioAssay (NCI)
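Results reflect a 48-hour exposure of cells in 96-well plates to compound at five concentrations. At the TGI there is no net growth.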

Key:
Test in all cases: DTP human tumour cell line panel, 48 h
786-0 renal = test system: 786-0 renal
A498 renal = test system: A498 renal
A549 NSCLC = test system: A549 NSCLC
ACHN renal = test system: ACHN renal
CAKI-1 renal = test system: CAKI-1 renal
CCRF-CEM leukemia = test system: CCRF-CEM leukemia
COLO 205 colon = test system: COLO 205 colon
DU-145 prostate = test system: DU-145 prostate
EKVX NSCLC = test system: EKVX NSCLC
HCC-2998 colon = test system: HCC-2998 colon
HCT-116 colon = test system: HCT-116 colon
HCT-15 colon = test system: HCT-15 colon
HL-60(TB) leukemia = test system: HL-60(TB) leukemia
HOP-62 NSCLC = test system: HOP-62 NSCLC
HS 578T breast = test system: HS 578T breast
HT29 colon = test system: HT29 colon
IGROV1 ovarian = test system: IGROV1 ovarian
K-562 leukemia = test system: K-562 leukemia
KM12 colon = test system: KM12 colon
LOX IMVI melanoma = test system: LOX IMVI melanoma
M14 melanoma = test system: M14 melanoma
MALME-3M melanoma = test system: MALME-3M melanoma
MDA-MB-231 breast = test system: MDA-MB-231 breast
MDA-MB-435 = test system: MDA-MB-435
MDA-N = test system: MDA-N
MOLT-4 leukemia = test system: MOLT-4 leukemia
NCI-H226 lung = test system: NCI-H226 lung
NCI-H23 lung = test system: NCI-H23 lung
NCI-H460 lung = test system: NCI-H460 lung
NCI-H522 lung = test system: NCI-H522 lung
NCI/ADR-RES ovarian = test system: NCI/ADR-RES ovarian
OVCAR-3 ovarian = test system: OVCAR-3 ovarian
OVCAR-4 ovarian = test system: OVCAR-4 ovarian
OVCAR-5 ovarian = test system: OVCAR-5 ovarian
PC-3 prostate = test system: PC-3 prostate
RPMI-8226 leukemia = test system: RPMI-8226 leukemia
RXF 393 renal = test system: RXF 393 renal
SF-268 CNS = test system: SF-268 CNS
SF-295 CNS = test system: SF-295 CNS
SF-539 CNS = test system: SF-539 CNS
SK-MEL-2 melanoma = test system: SK-MEL-2 melanoma
SK-MEL-28 melanoma = test system: SK-MEL-28 melanoma
SK-MEL-5 melanoma = test system: SK-MEL-5 melanoma
SK-OV-3 ovarian = test system: SK-OV-3 ovarian
SN12C renal = test system: SN12C renal
SNB-19 CNS = test system: SNB-19 CNS
SNB-75 CNS = test system: SNB-75 CNS
SR leukemia = test system: SR leukemia
SW-620 colon = test system: SW-620 colon
T-47D breast = test system: T-47D breast
TK-10 renal = test system: TK-10 renal
UACC-257 melanoma = test system: UACC-257 melanoma
UACC-62 melanoma = test system: UACC-62 melanoma
UO-31 renal = test system: UO-31 renal

Measured: TGI

COc1cc2nn(-c3ccccc3)nc2c2nonc12
> 100 µM: 786-0 renal | A498 renal | A549 NSCLC | ACHN renal | CAKI-1 renal | CCRF-CEM leukemia | COLO 205 colon | DU-145 prostate | EKVX NSCLC | HCC-2998 colon | HCT-116 colon | HCT-15 colon | HL-60(TB) leukemia | HOP-62 NSCLC | HS 578T breast | HT29 colon | IGROV1 ovarian | K-562 leukemia | KM12 colon | LOX IMVI melanoma | M14 melanoma | MALME-3M melanoma | MDA-MB-231 breast | MDA-MB-435 | MDA-N | MOLT-4 leukemia | NCI-H226 lung | NCI-H23 lung | NCI-H460 lung | NCI-H522 lung | NCI/ADR-RES ovarian | OVCAR-3 ovarian | OVCAR-4 ovarian | OVCAR-5 ovarian | PC-3 prostate | RPMI-8226 leukemia | RXF 393 renal | SF-268 CNS | SF-295 CNS | SF-539 CNS | SK-MEL-2 melanoma | SK-MEL-28 melanoma | SK-MEL-5 melanoma | SK-OV-3 ovarian | SN12C renal | SNB-19 CNS | SNB-75 CNS | SR leukemia | SW-620 colon | T-47D breast | TK-10 renal | UACC-257 melanoma | UACC-62 melanoma | UO-31 renal
